The record followed here is US20080248548A1, “MODULATION OF PROTEIN FUNCTIONALITIES” (priority 2007, published 2008).

The target of the test is T1, p38 MAP kinase (Homo sapiens, UniProt Q16539).
T1 construct: made in house; host or cells: E. coli
T1 sequence (Q16539 whole entry): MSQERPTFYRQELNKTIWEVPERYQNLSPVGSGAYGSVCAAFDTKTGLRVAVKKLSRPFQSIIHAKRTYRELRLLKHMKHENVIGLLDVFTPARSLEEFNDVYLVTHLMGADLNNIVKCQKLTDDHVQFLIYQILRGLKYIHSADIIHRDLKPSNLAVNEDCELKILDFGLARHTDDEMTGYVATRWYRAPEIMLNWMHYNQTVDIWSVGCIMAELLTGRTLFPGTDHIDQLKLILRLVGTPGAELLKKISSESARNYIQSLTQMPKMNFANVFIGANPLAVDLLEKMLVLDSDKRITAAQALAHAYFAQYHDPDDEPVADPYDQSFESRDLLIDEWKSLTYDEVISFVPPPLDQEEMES
The experiment in a line: P38 MAP kinase binding assay (competition with fluorescent probe SKF 86002). Conditions: inhibition assigned as time-dependent if the IC50 values decrease with the reaction time (more than two-fold in four hours). On the procedure:
Thus, the ability of a small molecule to block fluoroprobe binding provides an experimental readout of binding to the switch control pocket. […] The reaction was initiated by addition of the enzyme. […] By comparison of rfu (relative fluorescence unit) values with that of a control (in the absence of small molecule modulators), the percentage of inhibition at each concentration of the small molecules were calculated. IC50 values for the small molecule modulators were calculated from the % inhibition values obtained at a range of concentrations of the small molecule modulators using Prism. When time-dependent inhibition was assessed, the plate was read at multiple reaction times such as 0.5, 1, 2, 3, 4 and 6 hours. The IC50 values were calculated at each time point. An inhibition was assigned as time-dependent if the IC50 values decrease with the reaction time (more than two-fold in four hours).
`CC1(C(=O)O)CC2(C)CC(C)(C1)C(=O)N(Cc1cccc(-n3nc(C(C)(C)C)cc3NC(=O)Nc3cccc4ccccc34)c1)C2=O` (stereo not shown) [Example 11]: the Time-dependent entry was “No”.
For the compound `CC(C)(C)c1cc(NC(=O)Nc2cccc3ccccc23)n(-c2cccc(CC(=O)N3CCOCC3)c2)n1` [Example 21, 1-{3-tert-butyl-1-[3-(2-morpholino-2-oxoethyl)phenyl)-1H-pyrazol-5-yl}-3-(naphthalene-1-yl)urea], the Time-dependent entry is listed as “Yes”.
As to `CC1(C(=O)O)CC2(C)CC(C)(C1)C(=O)N(Cc1cccc(-n3nc(C(C)(C)C)cc3NC(=O)Nc3ccc(Cl)cc3)c1)C2=O` (stereo not shown) [Example 12], the Time-dependent entry is listed as “No”.
On to `CC(C)(C)c1cc(NC(=O)Nc2cccc3ccccc23)n(-c2ccc(CN)cc2)n1` [Example 45, 1-{3-tert-butyl-1-[4-(aminomethyl)phenyl]-1H-pyrazol-5-yl}-3-(naphthalen-1-yl)urea], for which the Time-dependent entry is reported as “No”.
